Columns and labels:
Assay in all cases: Kinase profiling
Type in all cases: biochemical
Abl(h) = molecular target: T1, Abl(h) (Homo sapiens, UniProt P00519)
T1 construct: purchased Eurofins Cerep SA (KinaseProfiler)
Procedure: (§1) 380 kinases inhibitory activities of SKLB-D18 were conducted by Eurofins Cerep SA. The result was illustrated by kinase tree (http://www.kinhub.org/kinmap/).

Flt1(h) = molecular target: T2, Flt1(h) (Homo sapiens, UniProt P17948)
T2 construct: purchased Eurofins Cerep SA (KinaseProfiler)
Procedure: as §1

PKBα(h) = molecular target: T3, PKBα(h) (Homo sapiens, UniProt P31749)
T3 construct: purchased Eurofins Cerep SA (KinaseProfiler)
Procedure: as §1

MAPKAP-K3(h) = molecular target: T4, MAPKAP-K3(h) (Homo sapiens, UniProt Q16644)
T4 construct: purchased Eurofins Cerep SA (KinaseProfiler)
Procedure: as §1

GAK(h) = molecular target: T5, GAK(h) (Homo sapiens, UniProt O14976)
T5 construct: purchased Eurofins Cerep SA (KinaseProfiler)
Procedure: as §1

MAPK3(h) = molecular target: T6, MAPK3(h) (Homo sapiens, UniProt P27361)
T6 construct: purchased Eurofins Cerep SA (KinaseProfiler)
T6 sequence (P27361 whole entry): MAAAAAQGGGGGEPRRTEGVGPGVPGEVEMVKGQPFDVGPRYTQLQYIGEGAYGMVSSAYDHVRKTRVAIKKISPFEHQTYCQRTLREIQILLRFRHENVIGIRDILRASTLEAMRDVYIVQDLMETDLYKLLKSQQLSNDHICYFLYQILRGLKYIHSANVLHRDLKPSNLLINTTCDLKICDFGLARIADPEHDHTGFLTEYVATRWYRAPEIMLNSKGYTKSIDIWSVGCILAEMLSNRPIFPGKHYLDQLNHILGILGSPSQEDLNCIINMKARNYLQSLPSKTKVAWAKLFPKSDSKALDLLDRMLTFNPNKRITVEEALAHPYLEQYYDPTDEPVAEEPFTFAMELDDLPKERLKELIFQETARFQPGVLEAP
Procedure: as §1

PKCβI(h) = molecular target: T7, PKCβI(h) (Homo sapiens, UniProt P05771)
T7 construct: purchased Eurofins Cerep SA (KinaseProfiler)
Procedure: as §1

DRAK2(h) = molecular target: T8, DRAK2(h) (Homo sapiens, UniProt O94768)
T8 construct: purchased Eurofins Cerep SA (KinaseProfiler)
T8 sequence (O94768 whole entry): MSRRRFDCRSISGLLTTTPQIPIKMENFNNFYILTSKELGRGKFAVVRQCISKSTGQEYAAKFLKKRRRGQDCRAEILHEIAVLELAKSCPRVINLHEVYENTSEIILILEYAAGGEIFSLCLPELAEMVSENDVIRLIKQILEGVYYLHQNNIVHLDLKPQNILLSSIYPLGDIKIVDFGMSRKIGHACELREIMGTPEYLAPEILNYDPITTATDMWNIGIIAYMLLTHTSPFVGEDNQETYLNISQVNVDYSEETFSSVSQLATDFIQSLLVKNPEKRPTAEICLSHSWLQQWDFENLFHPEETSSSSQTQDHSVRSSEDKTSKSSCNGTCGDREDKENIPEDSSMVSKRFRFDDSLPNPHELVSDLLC
Procedure: as §1

SAPK2b(h) = molecular target: T9, SAPK2b(h) (Homo sapiens, UniProt Q15759)
T9 construct: purchased Eurofins Cerep SA (KinaseProfiler)
T9 sequence (Q15759 whole entry): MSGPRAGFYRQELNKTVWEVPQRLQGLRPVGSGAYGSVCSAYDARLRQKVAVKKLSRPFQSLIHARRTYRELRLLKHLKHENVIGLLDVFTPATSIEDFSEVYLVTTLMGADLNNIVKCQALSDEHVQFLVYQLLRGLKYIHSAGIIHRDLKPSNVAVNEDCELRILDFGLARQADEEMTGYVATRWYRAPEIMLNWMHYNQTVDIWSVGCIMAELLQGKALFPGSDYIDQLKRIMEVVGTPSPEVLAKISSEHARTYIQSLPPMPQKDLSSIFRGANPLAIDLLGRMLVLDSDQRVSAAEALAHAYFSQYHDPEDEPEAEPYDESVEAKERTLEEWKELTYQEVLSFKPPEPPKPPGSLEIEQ
Procedure: as §1

NDR2(h) = molecular target: T10, NDR2(h) (Homo sapiens, UniProt Q9Y2H1)
T10 construct: purchased Eurofins Cerep SA (KinaseProfiler)
Procedure: as §1

MAP4K3(h) = molecular target: T11, MAP4K3(h) (Homo sapiens, UniProt Q8IVH8)
T11 construct: purchased Eurofins Cerep SA (KinaseProfiler)
Procedure: as §1

HRI(h) = molecular target: T12, HRI(h) (Homo sapiens, UniProt Q9BQI3)
T12 construct: purchased Eurofins Cerep SA (KinaseProfiler)
T12 sequence (Q9BQI3 whole entry): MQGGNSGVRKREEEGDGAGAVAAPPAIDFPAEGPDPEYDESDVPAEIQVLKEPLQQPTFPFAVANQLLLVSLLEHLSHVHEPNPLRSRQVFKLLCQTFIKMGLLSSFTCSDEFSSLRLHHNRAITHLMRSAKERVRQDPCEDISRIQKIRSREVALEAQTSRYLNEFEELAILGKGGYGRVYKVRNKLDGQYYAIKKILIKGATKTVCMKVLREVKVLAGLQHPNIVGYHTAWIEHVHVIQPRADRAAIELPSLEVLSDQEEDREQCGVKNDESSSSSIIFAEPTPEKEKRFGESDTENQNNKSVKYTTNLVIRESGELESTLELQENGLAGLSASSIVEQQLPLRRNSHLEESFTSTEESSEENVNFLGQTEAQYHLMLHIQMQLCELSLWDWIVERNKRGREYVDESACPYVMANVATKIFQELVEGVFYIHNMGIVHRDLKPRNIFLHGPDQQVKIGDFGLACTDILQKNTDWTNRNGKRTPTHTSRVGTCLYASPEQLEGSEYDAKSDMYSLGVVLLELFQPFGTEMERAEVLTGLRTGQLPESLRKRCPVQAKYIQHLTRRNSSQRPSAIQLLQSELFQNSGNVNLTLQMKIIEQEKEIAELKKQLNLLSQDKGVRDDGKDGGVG
Procedure: as §1

TAO2(h) = molecular target: T13, TAO2(h) (Homo sapiens, UniProt Q9UL54)
T13 construct: purchased Eurofins Cerep SA (KinaseProfiler)
Procedure: as §1

ZAK(h) = molecular target: T14, ZAK(h) (Homo sapiens, UniProt Q9NYL2)
T14 construct: purchased Eurofins Cerep SA (KinaseProfiler)
Procedure: as §1

SIK2(h) = molecular target: T15, SIK2(h) (Homo sapiens, UniProt Q9H0K1)
T15 construct: purchased Eurofins Cerep SA (KinaseProfiler)
Procedure: as §1

Tie2 (h) = molecular target: T16, Tie2 (h) (Homo sapiens, UniProt Q02763)
T16 construct: purchased Eurofins Cerep SA (KinaseProfiler)
Procedure: as §1

TBK1(h) = molecular target: T17, TBK1(h) (Homo sapiens, UniProt Q9UHD2)
T17 construct: purchased Eurofins Cerep SA (KinaseProfiler)
Procedure: as §1

OSR1(h) = molecular target: T18, OSR1(h) (Homo sapiens, UniProt O95747)
T18 construct: purchased Eurofins Cerep SA (KinaseProfiler)
Procedure: as §1

CaMKIIβ(h) = molecular target: T19, CaMKIIβ(h) (Homo sapiens, UniProt Q13554)
T19 construct: purchased Eurofins Cerep SA (KinaseProfiler)
Procedure: as §1

EphA8(h) = molecular target: T20, EphA8(h) (Homo sapiens, UniProt P29322)
T20 construct: purchased Eurofins Cerep SA (KinaseProfiler)
Procedure: as §1

ROCK-II(h) = molecular target: T21, ROCK-II(h) (Homo sapiens, UniProt O75116)
T21 construct: purchased Eurofins Cerep SA (KinaseProfiler)
Procedure: as §1

Rsk4(h) = molecular target: T22, Rsk4(h) (Homo sapiens, UniProt Q9UK32)
T22 construct: purchased Eurofins Cerep SA (KinaseProfiler)
T22 sequence (Q9UK32 whole entry): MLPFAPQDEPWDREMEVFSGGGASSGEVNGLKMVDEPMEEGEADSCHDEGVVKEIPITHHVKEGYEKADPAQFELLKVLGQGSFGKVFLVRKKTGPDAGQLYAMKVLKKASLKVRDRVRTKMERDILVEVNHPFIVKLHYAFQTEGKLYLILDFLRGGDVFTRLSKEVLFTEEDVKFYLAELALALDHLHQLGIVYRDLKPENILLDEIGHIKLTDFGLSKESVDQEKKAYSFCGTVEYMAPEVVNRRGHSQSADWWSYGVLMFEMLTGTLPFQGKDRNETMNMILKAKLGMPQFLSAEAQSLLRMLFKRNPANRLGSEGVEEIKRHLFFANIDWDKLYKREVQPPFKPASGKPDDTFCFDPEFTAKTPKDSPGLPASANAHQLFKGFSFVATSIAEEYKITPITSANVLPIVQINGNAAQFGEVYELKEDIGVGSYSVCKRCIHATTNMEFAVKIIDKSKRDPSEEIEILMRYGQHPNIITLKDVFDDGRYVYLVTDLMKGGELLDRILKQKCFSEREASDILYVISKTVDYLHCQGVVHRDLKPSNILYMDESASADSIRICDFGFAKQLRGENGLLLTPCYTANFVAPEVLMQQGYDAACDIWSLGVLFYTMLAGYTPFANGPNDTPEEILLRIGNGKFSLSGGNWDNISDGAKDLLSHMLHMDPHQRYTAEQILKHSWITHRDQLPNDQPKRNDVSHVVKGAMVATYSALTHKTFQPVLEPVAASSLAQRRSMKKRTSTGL
Procedure: as §1

PAK3(h) = molecular target: T23, PAK3(h) (Homo sapiens, UniProt O75914)
T23 construct: purchased Eurofins Cerep SA (KinaseProfiler)
Procedure: as §1

EphA3(h) = molecular target: T24, EphA3(h) (Homo sapiens, UniProt P29320)
T24 construct: purchased Eurofins Cerep SA (KinaseProfiler)
Procedure: as §1

EphB2(h) = molecular target: T25, EphB2(h) (Homo sapiens, UniProt P29323)
T25 construct: purchased Eurofins Cerep SA (KinaseProfiler)
Procedure: as §1

PKCγ(h) = molecular target: T26, PKCγ(h) (Homo sapiens, UniProt P05129)
T26 construct: purchased Eurofins Cerep SA (KinaseProfiler)
Procedure: as §1

CaMKIβ(h) = molecular target: T27, CaMKIβ(h) (Homo sapiens, UniProt Q6P2M8)
T27 construct: purchased Eurofins Cerep SA (KinaseProfiler)
Procedure: as §1

ASK1(h) = molecular target: T28, ASK1(h) (Homo sapiens, UniProt Q99683)
T28 construct: purchased Eurofins Cerep SA (KinaseProfiler)
Procedure: as §1

MRCKβ(h) = molecular target: T29, MRCKβ(h) (Homo sapiens, UniProt Q9Y5S2)
T29 construct: purchased Eurofins Cerep SA (KinaseProfiler)
Procedure: as §1

CDK18/cyclinY(h) = molecular target: T30, CDK18/cyclinY(h) (Homo sapiens, UniProt Q07002)
T30 construct: purchased Eurofins Cerep SA (KinaseProfiler)
Procedure: as §1

ATR/ATRIP(h) = molecular target: T31, ATR/ATRIP(h) (Homo sapiens, UniProt Q13535)
T31 construct: purchased Eurofins Cerep SA (KinaseProfiler)
Procedure: as §1

STK39(h) = molecular target: T32, STK39(h) (Homo sapiens, UniProt Q9UEW8)
T32 construct: purchased Eurofins Cerep SA (KinaseProfiler)
Procedure: as §1

MuSK(h) = molecular target: T33, MuSK(h) (Homo sapiens, UniProt O15146)
T33 construct: purchased Eurofins Cerep SA (KinaseProfiler)
Procedure: as §1

LTK(h) = molecular target: T34, LTK(h) (Homo sapiens, UniProt P29376)
T34 construct: purchased Eurofins Cerep SA (KinaseProfiler)
Procedure: as §1

PKCη(h) = molecular target: T35, PKCη(h) (Homo sapiens, UniProt P24723)
T35 construct: purchased Eurofins Cerep SA (KinaseProfiler)
Procedure: as §1

SIK3(h) = molecular target: T36, SIK3(h) (Homo sapiens, UniProt Q9Y2K2)
T36 construct: purchased Eurofins Cerep SA (KinaseProfiler)
Procedure: as §1

NIM1(h) = molecular target: T37, NIM1(h) (Homo sapiens, UniProt Q8IY84)
T37 construct: purchased Eurofins Cerep SA (KinaseProfiler)
Procedure: as §1

Lyn(h) = molecular target: T38, Lyn(h) (Homo sapiens, UniProt P07948)
T38 construct: purchased Eurofins Cerep SA (KinaseProfiler)
Procedure: as §1

WNK1(h) = molecular target: T39, WNK1(h) (Homo sapiens, UniProt Q9H4A3)
T39 construct: purchased Eurofins Cerep SA (KinaseProfiler)
T39 sequence (Q9H4A3 whole entry): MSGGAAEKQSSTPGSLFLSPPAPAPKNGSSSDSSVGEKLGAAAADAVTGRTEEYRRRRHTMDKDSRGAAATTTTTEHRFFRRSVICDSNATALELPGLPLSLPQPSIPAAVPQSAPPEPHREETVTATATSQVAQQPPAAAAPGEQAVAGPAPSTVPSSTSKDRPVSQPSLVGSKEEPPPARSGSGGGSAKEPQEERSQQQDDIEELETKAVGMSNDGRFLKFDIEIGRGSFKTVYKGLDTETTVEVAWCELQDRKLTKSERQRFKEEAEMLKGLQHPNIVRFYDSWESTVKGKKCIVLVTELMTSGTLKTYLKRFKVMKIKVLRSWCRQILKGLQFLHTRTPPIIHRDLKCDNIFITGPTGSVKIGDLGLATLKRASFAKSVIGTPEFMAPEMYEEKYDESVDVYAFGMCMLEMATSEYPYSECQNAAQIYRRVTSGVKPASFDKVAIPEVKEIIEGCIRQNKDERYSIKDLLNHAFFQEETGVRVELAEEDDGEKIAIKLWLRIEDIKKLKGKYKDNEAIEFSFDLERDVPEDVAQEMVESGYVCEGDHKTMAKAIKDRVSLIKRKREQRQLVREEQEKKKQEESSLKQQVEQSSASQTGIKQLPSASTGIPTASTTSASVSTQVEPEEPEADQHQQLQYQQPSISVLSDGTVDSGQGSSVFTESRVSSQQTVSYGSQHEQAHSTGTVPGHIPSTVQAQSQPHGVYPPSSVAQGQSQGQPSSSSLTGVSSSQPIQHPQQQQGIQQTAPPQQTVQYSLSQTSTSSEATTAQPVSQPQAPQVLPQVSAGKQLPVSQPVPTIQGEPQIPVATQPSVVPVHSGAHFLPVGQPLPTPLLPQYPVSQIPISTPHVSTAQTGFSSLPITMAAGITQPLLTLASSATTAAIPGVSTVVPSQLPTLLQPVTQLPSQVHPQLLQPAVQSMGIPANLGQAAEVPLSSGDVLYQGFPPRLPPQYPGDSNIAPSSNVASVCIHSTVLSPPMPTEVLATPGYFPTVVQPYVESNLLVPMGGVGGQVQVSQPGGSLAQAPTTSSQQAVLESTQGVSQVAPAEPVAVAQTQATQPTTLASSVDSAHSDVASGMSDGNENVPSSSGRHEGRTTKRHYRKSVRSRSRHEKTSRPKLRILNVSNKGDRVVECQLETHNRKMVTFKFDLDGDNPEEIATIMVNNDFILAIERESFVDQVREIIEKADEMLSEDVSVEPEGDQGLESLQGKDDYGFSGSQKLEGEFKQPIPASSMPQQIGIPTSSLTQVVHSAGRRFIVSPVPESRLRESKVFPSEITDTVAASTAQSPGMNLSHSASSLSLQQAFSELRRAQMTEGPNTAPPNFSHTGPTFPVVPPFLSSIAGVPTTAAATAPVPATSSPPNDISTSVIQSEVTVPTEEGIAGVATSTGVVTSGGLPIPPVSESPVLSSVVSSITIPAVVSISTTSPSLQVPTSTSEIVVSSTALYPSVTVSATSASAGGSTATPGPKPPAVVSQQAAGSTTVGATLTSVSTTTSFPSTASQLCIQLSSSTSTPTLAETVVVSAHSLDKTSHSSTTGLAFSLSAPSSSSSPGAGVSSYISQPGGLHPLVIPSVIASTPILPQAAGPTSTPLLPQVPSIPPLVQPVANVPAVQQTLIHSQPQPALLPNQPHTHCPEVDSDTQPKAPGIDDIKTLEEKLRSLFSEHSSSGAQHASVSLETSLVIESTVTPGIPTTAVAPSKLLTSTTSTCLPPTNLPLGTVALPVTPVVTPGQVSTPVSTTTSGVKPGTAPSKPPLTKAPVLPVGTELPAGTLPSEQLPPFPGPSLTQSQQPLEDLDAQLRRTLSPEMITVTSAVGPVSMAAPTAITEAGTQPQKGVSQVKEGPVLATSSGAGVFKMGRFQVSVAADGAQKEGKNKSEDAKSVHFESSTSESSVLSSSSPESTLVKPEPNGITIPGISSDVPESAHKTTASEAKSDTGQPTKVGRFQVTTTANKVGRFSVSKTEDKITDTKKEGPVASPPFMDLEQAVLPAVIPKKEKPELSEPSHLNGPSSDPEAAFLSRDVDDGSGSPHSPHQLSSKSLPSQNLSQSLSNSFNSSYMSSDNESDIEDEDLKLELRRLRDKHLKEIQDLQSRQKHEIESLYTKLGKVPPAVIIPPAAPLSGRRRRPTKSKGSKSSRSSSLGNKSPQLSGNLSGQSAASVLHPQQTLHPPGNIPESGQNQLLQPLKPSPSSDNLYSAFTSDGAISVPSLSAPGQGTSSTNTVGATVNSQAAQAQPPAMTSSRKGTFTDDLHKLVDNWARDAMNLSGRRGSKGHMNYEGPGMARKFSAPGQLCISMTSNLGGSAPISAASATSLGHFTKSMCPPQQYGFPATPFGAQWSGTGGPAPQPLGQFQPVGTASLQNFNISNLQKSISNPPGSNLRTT
Procedure: as §1

TrkA(h) = molecular target: T40, TrkA(h) (Homo sapiens, UniProt P04629)
T40 construct: purchased Eurofins Cerep SA (KinaseProfiler)
Procedure: as §1

CDKL3(h) = molecular target: T41, CDKL3(h) (Homo sapiens, UniProt Q8IVW4)
T41 construct: purchased Eurofins Cerep SA (KinaseProfiler)
Procedure: as §1

CN(C)Cc1cccc(Nc2ncc(Cl)c(-c3csc(C(=O)NN4CCOCC4)c3)n2)c1 [SKLB-D18, 4-(5-chloro-2-((3-((dimethylamino)methyl)phenyl)amino)pyrimidin-4-yl)-N-morpholinothiophene-2-carboxamide]
inhibition at 1 µM (Abl(h)): 45% | inhibition at 1 µM (Flt1(h)): 39% | inhibition at 1 µM (PKBα(h)): 12% | inhibition at 1 µM (MAPKAP-K3(h)): -10% | inhibition at 1 µM (GAK(h)): 78% | inhibition at 1 µM (MAPK3(h)): 96% | inhibition at 1 µM (PKCβI(h)): 12% | inhibition at 1 µM (DRAK2(h)): 29% | inhibition at 1 µM (SAPK2b(h)): 4% | inhibition at 1 µM (NDR2(h)): 27% | inhibition at 1 µM (MAP4K3(h)): 60% | inhibition at 1 µM (HRI(h)): 38% | inhibition at 1 µM (TAO2(h)): 64% | inhibition at 1 µM (ZAK(h)): 5% | inhibition at 1 µM (SIK2(h)): 67% | inhibition at 1 µM (Tie2 (h)): 44% | inhibition at 1 µM (TBK1(h)): 64% | inhibition at 1 µM (OSR1(h)): 28% | inhibition at 1 µM (CaMKIIβ(h)): 44% | inhibition at 1 µM (EphA8(h)): 14% | inhibition at 1 µM (ROCK-II(h)): 34% | inhibition at 1 µM (Rsk4(h)): 63% | inhibition at 1 µM (PAK3(h)): 27% | inhibition at 1 µM (EphA3(h)): 12% | inhibition at 1 µM (EphB2(h)): -1% | inhibition at 1 µM (PKCγ(h)): 27% | inhibition at 1 µM (CaMKIβ(h)): 1% | inhibition at 1 µM (ASK1(h)): -5% | inhibition at 1 µM (MRCKβ(h)): 15% | inhibition at 1 µM (CDK18/cyclinY(h)): 48% | inhibition at 1 µM (ATR/ATRIP(h)): 13% | inhibition at 1 µM (STK39(h)): 37% | inhibition at 1 µM (MuSK(h)): 20% | inhibition at 1 µM (LTK(h)): 38% | inhibition at 1 µM (PKCη(h)): 16% | inhibition at 1 µM (SIK3(h)): 22% | inhibition at 1 µM (NIM1(h)): 50% | inhibition at 1 µM (Lyn(h)): 60% | inhibition at 1 µM (WNK1(h)): 12% | inhibition at 1 µM (TrkA(h)): 48% | inhibition at 1 µM (CDKL3(h)): 54%

Source: PMC11842588, “A first-in-class selective inhibitor of ERK1/2 and ERK5 overcomes drug resistance with a single-molecule strategy” (Signal Transduction and Targeted Therapy, 2025)
